Measured values: ChEMBL document CHEMBL1201861, “Genomics of Drug Sensitity in Cancer screening data, Wellcome Trust Sanger Institute”

How the values were obtained:
Type in all cases: functional, cell-based
[1] = tested on: UACC-893; assay: cells; settings: Homo sapiens
Description: SANGER: Inhibition of human UACC-893 cell growth in a cell viability assay.

[2] = tested on: 5637; assay: cells; settings: Homo sapiens
Description: SANGER: Inhibition of human 5637 cell growth in a cell viability assay.

[3] = tested on: SCC-4; assay: cells; settings: Homo sapiens;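 note: growth inhibition of human SCC-4 cells, read out as cell viability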
Description: SANGER: Inhibition of human SCC-4 cell growth in a cell viability assay.

[4] = tested on: DoTc2-4510; assay: cells; settings: Homo sapiens
[5] = tested on: SN12C; assay: cells; settings: Homo sapiens;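 note: growth inhibition of human SN12C cells, measured by a cell viability assay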
Description: SANGER: Inhibition of human SN12C cell growth in a cell viability assay.

[6] = tested on: WSU-NHL; assay: cells; settings: Homo sapiens;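 note: growth inhibition of human WSU-NHL cells, read out with a cell viability assay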
Description: SANGER: Inhibition of human WSU-NHL cell growth in a cell viability assay.

[7] = tested on: NY; assay: cells; settings: Homo sapiens
Description: SANGER: Inhibition of human NY cell growth in a cell viability assay.

[8] = tested on: UACC-812; assay: cells; settings: Homo sapiens
Description: SANGER: Inhibition of human UACC-812 cell growth in a cell viability assay.

[9] = tested on: G-401; assay: cells; settings: Homo sapiens
Description: SANGER: Inhibition of human G-401 cell growth in a cell viability assay.

[10] = tested on: D-392MG; assay: cells; settings: Homo sapiens
[11] = tested on: Capan-2; assay: cells; settings: Homo sapiens;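 note: Capan-2 cell growth inhibition, read out with a viability assay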
Description: SANGER: Inhibition of human Capan-2 cell growth in a cell viability assay.

[12] = tested on: NCI-H630; assay: cells; settings: Homo sapiens;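 note: growth inhibition of NCI-H630 cells, read out with a cell viability assay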
Description: SANGER: Inhibition of human NCI-H630 cell growth in a cell viability assay.

[13] = tested on: SK-N-AS; assay: cells; settings: Homo sapiens;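 note: growth inhibition of human SK-N-AS cells, measured with a cell viability assay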
Description: SANGER: Inhibition of human SK-N-AS cell growth in a cell viability assay.

[14] = tested on: CAPAN-1; assay: cells; settings: Homo sapiens;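 note: growth suppression of CAPAN-1 cells, read out by a cell viability assay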
Description: SANGER: Inhibition of human CAPAN-1 cell growth in a cell viability assay.

[15] = tested on: NCI-H358; assay: cells; settings: Homo sapiens;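 note: growth inhibition of NCI-H358 human cells, read out with a cell viability assay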
Description: SANGER: Inhibition of human NCI-H358 cell growth in a cell viability assay.

[16] = tested on: SF-295; assay: cells; settings: Homo sapiens;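 note: growth inhibition of SF-295 cells, read out with a cell viability assay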
Description: SANGER: Inhibition of human SF295 cell growth in a cell viability assay.

[17] = tested on: COLO-680N; assay: cells; settings: Homo sapiens;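 note: cell viability assay used to measure inhibition of COLO-680N cell growth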
Description: SANGER: Inhibition of human COLO-680N cell growth in a cell viability assay.

[18] = tested on: SiHa; assay: cells; settings: Homo sapiens;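 note: Viability-based readout of growth inhibition in SiHa cells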
Description: SANGER: Inhibition of human SiHa cell growth in a cell viability assay.

[19] = tested on: NCI-H2170; assay: cells; settings: Homo sapiens;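 note: cell viability assay measuring growth inhibition of human NCI-H2170 cancer cells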
Description: SANGER: Inhibition of human NCI-H2170 cell growth in a cell viability assay.

[20] = tested on: NCI-H596; assay: cells; settings: Homo sapiens;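 note: growth inhibition of NCI-H596 cells, read out with a cell viability assay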
Description: SANGER: Inhibition of human NCI-H596 cell growth in a cell viability assay.

[21] = tested on: D-247MG; assay: cells; settings: Homo sapiens
Description: SANGER: Inhibition of human D-247MG cell growth in a cell viability assay.

[22] = tested on: SCC-9; assay: cells; settings: Homo sapiens;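 note: Read-out is a cell viability assay, with values giving inhibition of cell growth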
Description: SANGER: Inhibition of human SCC-9 cell growth in a cell viability assay.

[23] = tested on: BEN; assay: cells; settings: Homo sapiens;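 note: growth inhibition of the BEN cell line, read out with a cell viability assay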
Description: SANGER: Inhibition of human BEN cell growth in a cell viability assay.

[24] = tested on: FaDu; assay: cells; settings: Homo sapiens;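 note: cell viability readout of growth inhibition in FaDu cells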
Description: SANGER: Inhibition of human FADU cell growth in a cell viability assay.

[25] = tested on: HSC-2; assay: cells; settings: Homo sapiens;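 note: growth inhibition of human HSC-2 cells, read out by a cell viability assay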
Description: SANGER: Inhibition of human HSC-2 cell growth in a cell viability assay.

[26] = tested on: SW1990; assay: cells; settings: Homo sapiens
Description: SANGER: Inhibition of human SW1990 cell growth in a cell viability assay.

[27] = tested on: SW1088; assay: cells; settings: Homo sapiens;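 note: growth inhibition of human SW1088 cells, read out by a cell viability assay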
Description: SANGER: Inhibition of human SW1088 cell growth in a cell viability assay.

[28] = tested on: MFE-280; assay: cells; settings: Homo sapiens;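 note: growth inhibition of MFE-280 cells, determined with a cell viability readout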
Description: SANGER: Inhibition of human MFE-280 cell growth in a cell viability assay.

[29] = tested on: HO-1-N-1; assay: cells; settings: Homo sapiens;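 note: growth inhibition of human HO-1-N-1 cells, read out with a cell viability assay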
Description: SANGER: Inhibition of human HO-1-N-1 cell growth in a cell viability assay.

[30] = tested on: HCT-15; assay: cells; settings: Homo sapiens;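 note: cell viability readout, IC50 reflecting suppression of HCT-15 cell growth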
Description: SANGER: Inhibition of human HCT-15 cell growth in a cell viability assay.

[31] = tested on: 8305C; assay: cells; settings: Homo sapiens
Description: SANGER: Inhibition of human 8305C cell growth in a cell viability assay.

[32] = tested on: SW13; assay: cells; settings: Homo sapiens;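 note: IC50 is inhibition of SW13 cell growth, read out with a cell viability assay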
Description: SANGER: Inhibition of human SW13 cell growth in a cell viability assay.

[33] = tested on: ACHN; assay: cells; settings: Homo sapiens;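 note: cell viability read-out used to gauge how strongly growth of human ACHN cells is suppressed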
Description: SANGER: Inhibition of human ACHN cell growth in a cell viability assay.

[34] = tested on: NCI-H1793; assay: cells; settings: Homo sapiens;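 note: cell growth inhibition, read out by a cell viability assay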
Description: SANGER: Inhibition of human NCI-H1793 cell growth in a cell viability assay.

[35] = tested on: 23132-87; assay: cells; settings: Homo sapiens
Description: SANGER: Inhibition of human 23132-87 cell growth in a cell viability assay.

[36] = tested on: NCI-H719; assay: cells; settings: Homo sapiens;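 note: growth inhibition of the cultured cell line, read out with a viability assay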
Description: SANGER: Inhibition of human NCI-H719 cell growth in a cell viability assay.

[37] = tested on: MDA-MB-361; assay: cells; settings: Homo sapiens
[38] = tested on: U-118-MG; assay: cells; settings: Homo sapiens
Description: SANGER: Inhibition of human U-118-MG cell growth in a cell viability assay.

[39] = tested on: A2058; assay: cells; settings: Homo sapiens;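 note: reduction of A2058 cell growth, read out with a viability assay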
Description: SANGER: Inhibition of human A2058 cell growth in a cell viability assay.

[40] = tested on: SK-MEL-30; assay: cells; settings: Homo sapiens;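 note: growth inhibition of SK-MEL-30 cells, determined with a cell viability assay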
Description: SANGER: Inhibition of human SK-MEL-30 cell growth in a cell viability assay.

[41] = tested on: SK-OV-3; assay: cells; settings: Homo sapiens;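 note: growth inhibition of SK-OV-3 human cells, read out with a cell viability assay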
Description: SANGER: Inhibition of human SK-OV-3 cell growth in a cell viability assay.

[42] = tested on: HCC1569; assay: cells; settings: Homo sapiens;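 note: growth inhibition of human HCC1569 cells, read out with a cell viability assay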
Description: SANGER: Inhibition of human HCC1569 cell growth in a cell viability assay.

[43] = tested on: HSC-3; assay: cells; settings: Homo sapiens
Description: SANGER: Inhibition of human HSC-3 cell growth in a cell viability assay.

[44] = tested on: NCI-H1623; assay: cells; settings: Homo sapiens;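 note: cell viability assay used as the read-out for growth inhibition of NCI-H1623 cells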
Description: SANGER: Inhibition of human NCI-H1623 cell growth in a cell viability assay.

[45] = tested on: CaR-1; assay: cells; settings: Homo sapiens;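 note: growth inhibition of human CaR-1 cancer cells, read out with a cell viability assay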
Description: SANGER: Inhibition of human CaR-1 cell growth in a cell viability assay.

[46] = tested on: NCI-H28; assay: cells; settings: Homo sapiens;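 note: growth inhibition of human NCI-H28 cells, read out as cell viability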
Description: SANGER: Inhibition of human NCI-H28 cell growth in a cell viability assay.

[47] = tested on: HT-1376; assay: cells; settings: Homo sapiens
Description: SANGER: Inhibition of human HT-1376 cell growth in a cell viability assay.

[48] = tested on: Calu-3; assay: cells; settings: Homo sapiens;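 note: growth inhibition of human Calu-3 cells, determined with a cell viability assay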
Description: SANGER: Inhibition of human Calu-3 cell growth in a cell viability assay.

[49] = tested on: SCLC-21H; assay: cells; settings: Homo sapiens;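 note: growth inhibition of cultured human SCLC-21H cells, read out with a cell viability assay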
Description: SANGER: Inhibition of human SCLC-21H cell growth in a cell viability assay.

[50] = tested on: RPMI-6666; assay: cells; settings: Homo sapiens
Description: SANGER: Inhibition of human RPMI-6666 cell growth in a cell viability assay.

[51] = tested on: SW948; assay: cells; settings: Homo sapiens;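 note: growth inhibition of SW948 cells, read out with a cell viability assay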
Description: SANGER: Inhibition of human SW948 cell growth in a cell viability assay.

[52] = tested on: 769-P; assay: cells; settings: Homo sapiens
Description: SANGER: Inhibition of human 769-P cell growth in a cell viability assay.

[53] = tested on: SR; assay: cells; settings: Homo sapiens
Description: SANGER: Inhibition of human SR cell growth in a cell viability assay.

[54] = tested on: MDA-MB-415; assay: cells; settings: Homo sapiens
[55] = tested on: SW1783; assay: cells; settings: Homo sapiens
Description: SANGER: Inhibition of human SW1783 cell growth in a cell viability assay.

[56] = tested on: VMRC-RCZ; assay: cells; settings: Homo sapiens
Description: SANGER: Inhibition of human VMRC-RCZ cell growth in a cell viability assay.

[57] = tested on: HCC2157; assay: cells; settings: Homo sapiens;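 note: growth inhibition of the cancer cell line, read out as cell viability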
Description: SANGER: Inhibition of human HCC2157 cell growth in a cell viability assay.

[58] = tested on: BFTC-905; assay: cells; settings: Homo sapiens
Description: SANGER: Inhibition of human BFTC-905 cell growth in a cell viability assay.

[59] = tested on: NCI-H1882; assay: cells; settings: Homo sapiens;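 note: growth inhibition of the cell line, determined with a viability assay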
Description: SANGER: Inhibition of human NCI-H1882 cell growth in a cell viability assay.

[60] = tested on: UMC-11; assay: cells; settings: Homo sapiens;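 note: growth inhibition of UMC-11 cells, read out with a cell viability assay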
Description: SANGER: Inhibition of human UMC-11 cell growth in a cell viability assay.

[61] = tested on: BT-20; assay: cells; settings: Homo sapiens;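 note: cell viability assay measuring suppression of growth in human BT-20 cells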
Description: SANGER: Inhibition of human BT-20 cell growth in a cell viability assay.

[62] = tested on: IM-9; assay: SANGER: Inhibition of human IM-9 cell growth in a cell viability assay.
[63] = tested on: LC4-1; assay: cells; settings: Homo sapiens;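 note: growth inhibition of LC4-1 cells, read out with a cell viability assay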
Description: SANGER: Inhibition of human LC4-1 cell growth in a cell viability assay.

[64] = tested on: NB12; assay: cells; settings: Homo sapiens;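 note: growth inhibition of human NB12 cells, read out by a cell viability assay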
Description: SANGER: Inhibition of human NB12 cell growth in a cell viability assay.

[65] = tested on: 639-V; assay: cells; settings: Homo sapiens;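 note: growth inhibition of 639-V cells, read out with a cell viability assay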
Description: SANGER: Inhibition of human 639-V cell growth in a cell viability assay.

O=c1[nH]c2ccccc2n1C1CCN(Cc2ccc(-c3nc4cc5[nH]cnc5cc4nc3-c3ccccc3)cc2)CC1
IC50 [1]: > 2560 nM
IC50 [2]: > 2560 nM
IC50 [3]: > 2560 nM
IC50 [4]: > 2560 nM
IC50 [5]: > 2560 nM
IC50 [6]: > 2560 nM
IC50 [7]: > 2560 nM
IC50 [8]: > 2560 nM
IC50 [9]: > 2560 nM
IC50 [10]: > 2560 nM
IC50 [11]: > 2560 nM
IC50 [12]: > 2560 nM
IC50 [13]: > 2560 nM
IC50 [14]: > 2560 nM
IC50 [15]: > 2560 nM
IC50 [16]: > 2560 nM
IC50 [17]: > 2560 nM
IC50 [18]: > 2560 nM
IC50 [19]: > 2560 nM
IC50 [20]: > 2560 nM
IC50 [21]: > 2560 nM
IC50 [22]: > 2560 nM
IC50 [23]: > 2560 nM
IC50 [24]: > 2560 nM
IC50 [25]: > 2560 nM
IC50 [26]: > 2560 nM
IC50 [27]: > 2560 nM
IC50 [28]: > 2560 nM
IC50 [29]: > 2560 nM
IC50 [30]: > 2560 nM
IC50 [31]: > 2560 nM
IC50 [32]: > 2560 nM
IC50 [33]: > 2560 nM
IC50 [34]: > 2560 nM
IC50 [35]: 759 nM
IC50 [36]: > 2560 nM
IC50 [37]: 490 nM
IC50 [38]: > 2560 nM
IC50 [39]: > 2560 nM
IC50 [40]: > 2560 nM
IC50 [41]: > 2560 nM
IC50 [42]: > 2560 nM
IC50 [43]: > 2560 nM
IC50 [44]: > 2560 nM
IC50 [45]: > 2560 nM
IC50 [46]: > 2560 nM
IC50 [47]: > 2560 nM
IC50 [48]: > 2560 nM
IC50 [49]: > 2560 nM
IC50 [50]: > 2560 nM
IC50 [51]: > 2560 nM
IC50 [52]: > 2560 nM
IC50 [53]: > 2560 nM
IC50 [54]: 1730 nM
IC50 [55]: > 2560 nM
IC50 [56]: > 2560 nM
IC50 [57]: > 2560 nM
IC50 [58]: > 2560 nM
IC50 [59]: > 2560 nM
IC50 [60]: > 2560 nM
IC50 [61]: > 2560 nM
IC50 [62]: > 2560 nM
IC50 [63]: > 2560 nM
IC50 [64]: > 2560 nM
IC50 [65]: > 2560 nM

Fc1cc(-c2cc[nH]/c(=N/c3ccc(-n4cnc(N5CCOCC5)n4)cc3)n2)cc(N2CCOCC2)c1
IC50 [1]: 4990 nM
IC50 [2]: 5040 nM
IC50 [3]: 1250 nM
IC50 [4]: 225 nM
IC50 [5]: 1150 nM
IC50 [6]: 587 nM
IC50 [7]: 623 nM
IC50 [8]: 4420 nM
IC50 [9]: 380 nM
IC50 [10]: 1930 nM
IC50 [11]: 1010 nM
IC50 [12]: 544 nM
IC50 [13]: 1210 nM
IC50 [14]: 394 nM
IC50 [15]: 377 nM
IC50 [16]: 555 nM
IC50 [17]: 565 nM
IC50 [18]: 1110 nM
IC50 [19]: 745 nM
IC50 [20]: 814 nM
IC50 [21]: 4670 nM
IC50 [22]: 218 nM
IC50 [23]: 585 nM
IC50 [24]: 715 nM
IC50 [25]: 223 nM
IC50 [26]: 1100 nM
IC50 [27]: > 5120 nM
IC50 [28]: > 5120 nM
IC50 [29]: 617 nM
IC50 [30]: 258 nM
IC50 [31]: 397 nM
IC50 [32]: 1380 nM
IC50 [33]: 886 nM
IC50 [34]: 1210 nM
IC50 [35]: 623 nM
IC50 [36]: 2240 nM
IC50 [37]: 1070 nM
IC50 [38]: > 5120 nM
IC50 [39]: 500 nM
IC50 [40]: 588 nM
IC50 [41]: 2070 nM
IC50 [42]: 412 nM
IC50 [43]: 713 nM
IC50 [44]: 1300 nM
IC50 [45]: 1880 nM
IC50 [46]: 340 nM
IC50 [47]: 1460 nM
IC50 [48]: 824 nM
IC50 [49]: > 5120 nM
IC50 [50]: 296 nM
IC50 [51]: 835 nM
IC50 [52]: 535 nM
IC50 [53]: 122 nM
IC50 [54]: 1330 nM
IC50 [55]: 428 nM
IC50 [56]: 999 nM
IC50 [57]: 494 nM
IC50 [58]: 141 nM
IC50 [59]: 1080 nM
IC50 [60]: 179 nM
IC50 [61]: 493 nM
IC50 [62]: 3340 nM
IC50 [63]: 431 nM
IC50 [64]: 383 nM
IC50 [65]: 220 nM
